In US20220135567A1, “TYK2 PSEUDOKINASE LIGANDS” (Ventyx Biosciences, Inc., priority 2019, published 2022):

test system: IFN-a/Jak1Tyk2; assay: Co-stimulation assay in lysed whole blood: IFNa (JAK1/TYK2) stimulated STAT1 phosphorylation; type: cell-based; details: 20 min, lysed human whole blood, IFNa 100 ng/mL + GM-CSF 10 ng/mL, pSTAT1 by flow cytometry
Method: Dilute RBC lysis buffer to 1× in distilled water. Add 2 mL blood to 38 mL of 1×RBC-lysis buffer. Incubate for 15 mins at RT, in dark. Spin at 300 g, 5 mins, to collect the pellet. Re-lyse if necessary. Re-suspend pellet in 5 mL of cRPMI.
Aliquot 80 μL of lysed human blood in to wells of 96 deep-well plate. Add 10 μl of (10× conc.) of different concentrations of compounds to all wells except controls (unstained and unstimulated) and mix it with the help of 100 uL multichannel. Add 10 uL of RPMI media in controls. For dilution of compounds and dilution range please refer Appendix. Incubate on water bath or CO2 incubator for 1 hour at 37° C. Add 10 μl of (10× conc.) of cytokine mix (GM-CSF and IFNa) (final conc. 10 ng/mL of GM-CSF and 100 ng/mL of IFNa) to each well except unstimulated and unstained controls and incubate further for 20 minutes on water bath at 37° C.
Add 900 μL of prewarmed 1× Fix/Lyse solution (Appendix) and mix it properly using 1000 μl multichannel, incubate further on water bath at 37° C. for 10 minutes (which includes time of addition). Centrifuge at 800×g for 5 minutes at 40° C.; remove 900 uL of supernatant and add 900 μL of 1×PBS. Centrifuge at 800×g for 5 minutes at 40° C., remove 900 μL of supernatant. Wash one more time with 900 μL of PBS (optional) and resuspend pellets in 100 uL of PBS.
Disrupt the pellet by gentle tapping and resuspend in 1000 μL of BD Phosflow Perm Buffer III and incubate plate on ice for 30 minutes. Centrifuge plate at 800×g for 5 minutes at 40° C. Wash two more times with 1000 μL of BD Pharmingen Stain Buffer.
Disrupt the pellet by gentle tapping. Resuspend pellets in 100 uL of Stain Buffer and add 5 μL of pSTAT5_AF488 Ab and 5 uL of pSTAT1_PE in all wells except unstained control and mix properly using 200 μl multichannel, incubate overnight at […]. Add 900 μL of wash buffer and centrifuge at 1800 rpm for 3 minutes at […]. Wash one more time with 1000 μL of BD Pharmingen Stain Buffer. Finally resuspend the pellet in 300 uL of BD Pharmingen Stain Buffer. Transfer the cells to 96-well v-bottom plate and acquire the cells in Beckman Coulter CytExpert. Acquiring cells in Flow Cytometer: Keep the threshold value to 250 and cell concentration should not exceed 100-500 cells/μL. Acquire at least 5,000-10,000 cells.
Cytokine dilution: 1) GM-CSF Stock at 100 ug/mL. Prepare an intermediate dilution of 1 ug/mL by adding 2 uL of stock into 198 uL of cRPMI. Further dilute to 100 ng/mL by adding 100 uL of the intermediate stock to 900 uL of cRPMI. 2) IFNa Stock at 200 ug/mL. Dilute IFNa stock 1:200 by adding 5 uL of stock into the 1000 uL of 100 ng/mL GM-CSF working stock as above to give a combined working stock of 1000 ng/mL of IFNa and 100 ng/mL GM-CSF (10×). Keep it on ice until used.
Lyse/Fix buffer preparation: Dilute 5× Lyse/Fix buffer to 1× using MQ water and keep at 37° C. until used.
BD Phosflow perm buffer III: Keep on ice/fridge.

Compound	IC50 [nM]
CNC(=O)c1nscc1Nc1cc(NC)n2ncc(C(=O)NC3CC3)c2n1 [Compound 43, 4-((3-(cyclopropylcarbamoyl)-7-(methylamino)pyrazolo[1,5-a]pyrimidin-5-yl)amino)-N-methylisothiazole-3-carboxamide]	< 100
CNC(=O)c1cscc1Nc1cc(NC)n2ncc(C(=O)NC3CC3)c2n1 [Compound 44, N-cyclopropyl-7-(methylamino)-5-((4-(methylcarbamoyl)thiophen-3-yl)amino)pyrazolo[1,5-a]pyrimidine-3-carboxamide]	100 to 1000
CCOC(=O)c1nscc1Nc1cc(NC)n2ncc(C(=O)NCCOC)c2n1 [Compound 45, ethyl 4-((3-((2-methoxyethyl)carbamoyl)-7-(methylamino)pyrazolo[1,5-a]pyrimidin-5-yl)amino)isothiazole-3-carboxylate]	> 300
CNc1cc(Nc2csnc2C(=O)O)nc2c(C(=O)NCCOC)cnn12 [Compound 46, 4-((3-((2-methoxyethyl)carbamoyl)-7-(methylamino)pyrazolo[1,5-a]pyrimidin-5-yl)amino)isothiazole-3-carboxylic acid]	> 300
CNc1cc(Nc2cnn(CCOC)c2)nc2c(C(=O)NC3CC3)cnn12 [Compound 47, N-cyclopropyl-5-((1-(2-methoxyethyl)-1H-pyrazol-4-yl)amino)-7-(methylamino)pyrazolo[1,5-a]pyrimidine-3-carboxamide]	> 300
CNc1cc(Nc2cccc3c2OC(F)(F)O3)nc2c(C(=O)NCC(C)(C)CO)cnn12 [Compound 48, 5-((2,2-difluorobenzo[d][1,3]dioxol-4-yl)amino)-N-(3-hydroxy-2,2-dimethylpropyl)-7-(methylamino)pyrazolo[1,5-a]pyrimidine-3-carboxamide]	< 100
CNc1cc(Nc2c(Cl)ccc3c2OCO3)nc2c(C(=O)NCC(C)(C)CO)cnn12 [Compound 49, 5-((5-chlorobenzo[d][1,3]dioxol-4-yl)amino)-N-(3-hydroxy-2,2-dimethylpropyl)-7-(methylamino)pyrazolo[1,5-a]pyrimidine-3-carboxamide]	1000 to 10000
CNc1cc(Nc2cccc3c2OCO3)nc2c(C(=O)NCC(C)(C)CO)cnn12 [Compound 50, 5-(benzo[d][1,3]dioxol-4-ylamino)-N-(3-hydroxy-2,2-dimethylpropyl)-7-(methylamino)pyrazolo[1,5-a]pyrimidine-3-carboxamide]	< 100
CNc1cc(Nc2cccc(N3CCN(C)CC3)c2)nc2c(C(=O)NC3CC3)cnn12 [Compound 51, N-cyclopropyl-7-(methylamino)-5-((3-(4-methylpiperazin-1-yl)phenyl)amino)pyrazolo[1,5-a]pyrimidine-3-carboxamide]	< 100
CNc1cc(Nc2cccc3c2OCCO3)nc2c(C(=O)NCC(F)(F)F)cnn12 [Compound 52, 5-((2,3-dihydrobenzo[b][1,4]dioxin-5-yl)amino)-7-(methylamino)-N-(2,2,2-trifluoroethyl)pyrazolo[1,5-a]pyrimidine-3-carboxamide]	100 to 1000
CNc1cc(Nc2ccnn2C)nc2c(C(=O)NC3CC3)cnn12 [Compound 53, N-cyclopropyl-5-((1-methyl-1H-pyrazol-5-yl)amino)-7-(methylamino)pyrazolo[1,5-a]pyrimidine-3-carboxamide]	100 to 1000
CNc1cc(Nc2ccccc2OC(F)(F)F)nc2c(C(=O)NC3CC3)cnn12 [Compound 54, N-cyclopropyl-7-(methylamino)-5-((2-(trifluoromethoxy)phenyl)amino) pyrazolo[1,5-a]pyrimidine-3-carboxamide]	100 to 1000
CNc1cc(Nc2cccc(N3CCOCC3)c2)nc2c(C(=O)NC3CC3)cnn12 [Compound 55, N-cyclopropyl-7-(methylamino)-5-((3-morpholinophenyl)amino)pyrazolo [1,5-a]pyrimidine-3-carboxamide]	< 100
CNc1cc(Nc2cc(C)cnc2OC)nc2c(C(=O)NC3CC3)cnn12 [Compound 56, N-cyclopropyl-5-((2-methoxy-5-methylpyridin-3-yl)amino)-7-(methylamino)pyrazolo[1,5-a]pyrimidine-3-carboxamide]	100 to 1000
CNc1cc(Nc2cc(Cl)ccc2OC(F)(F)F)nc2c(C(=O)NC3CC3)cnn12 [Compound 57, 5-((5-chloro-2-(trifluoromethoxy)phenyl)amino)-N-cyclopropyl-7-(methylamino)pyrazolo[1,5-a]pyrimidine-3-carboxamide]	100 to 1000
CC(C)(CO)CNC(=O)c1cnn2c(N)cc(Nc3cccc4c3OCO4)nc12 [Compound 58, 7-amino-5-(benzo[d][1,3]dioxol-4-ylamino)-N-(3-hydroxy-2,2-dimethylpropyl)pyrazolo[1,5-a]pyrimidine-3-carboxamide]	100 to 1000
CC(C)(CO)CNC(=O)c1cnn2c(NC3CC3)cc(Nc3cccc4c3OCO4)nc12 [Compound 59, 5-(benzo[d][1,3]dioxol-4-ylamino)-7-(cyclopropylamino)-N-(3-hydroxy-2,2-dimethylpropyl)pyrazolo[1,5-a]pyrimidine-3-carboxamide]	1000 to 10000
CNc1cc(Nc2ccc3c(c2)CCN(C)C3)nc2c(C(=O)NC3CC3)cnn12 [Compound 60, N-cyclopropyl-5-((2-methyl-1,2,3,4-tetrahydroisoquinolin-6-yl)amino)-7-(methylamino)pyrazolo[1,5-a]pyrimidine-3-carboxamide]	1000 to 10000
CNc1cc(Nc2ccc3c(c2)CN(C)CC3)nc2c(C(=O)NC3CC3)cnn12 [Compound 61, N-cyclopropyl-5-((2-methyl-1,2,3,4-tetrahydroisoquinolin-7-yl)amino)-7-(methylamino)pyrazolo[1,5-a]pyrimidine-3-carboxamide]	1000 to 10000
CNc1cc(Nc2cc(C(F)(F)F)cnc2OC)nc2c(C(=O)NC3CC3)cnn12 [Compound 62, N-cyclopropyl-5-((2-methoxy-5-(trifluoromethyl)pyridin-3-yl)amino)-7-(methylamino)pyrazolo[1,5-a]pyrimidine-3-carboxamide]	1000 to 10000
CNc1cc(Nc2cccc3c2OCCO3)nc2c(C(=O)NCC(C)(C)O)cnn12 [Compound 63, 5-((2,3-dihydrobenzo[b][1,4]dioxin-5-yl)amino)-N-(2-hydroxy-2-methylpropyl)-7-(methylamino)pyrazolo[1,5-a]pyrimidine-3-carboxamide]	< 100
CNc1cc(Nc2ccn(CC(F)(F)F)n2)nc2c(C(=O)NC3CC3)cnn12 [Compound 64, N-cyclopropyl-7-(methylamino)-5-((1-(2,2,2-trifluoroethyl)-1H-pyrazol-3-yl)amino)pyrazolo[1,5-a]pyrimidine-3-carboxamide]	> 300
CNc1cc(Nc2cccc3c2OCCO3)nc2c(C(=O)NCC(C)(O)CO)cnn12 (stereo not drawn) [Compound 65, 5-((2,3-dihydrobenzo[b][1,4]doxin-5-yl)amino)-N-(2,3-dihydroxy-2-methylpropyl)-7-(methylamino)pyrazolo[1,5-a]pyrimidine-3-carboxamide]	< 100
CNc1cc(Nc2cccn(-c3ccc(OC)nn3)c2=O)nc2c(C(=O)NCC(C)(C)CO)cnn12 [Compound 66, N-(3-hydroxy-2,2-dimethylpropyl)-5-((1-(6-methoxypyridazin-3-yl)-2-oxo-1,2-dihydropyridin-3-yl)amino)-7-(methylamino)pyrazolo[1,5-a]pyrimidine-3-carboxamide]	100 to 1000
